US20250228953A1, “INTRACELLULAR TARGETING OF OLIGONUCLEOTIDES” (Entrada Therapeutics, Inc., priority 2021, published 2025)

Columns and labels:
[1] = amino acid hydrophobicity scale; cited from earlier work
[2] = as reported by Tien, cited from earlier work; for SASA, Empirical / SASA, Theoretical: et al.
eGFP-654 transgene = assay: eGFP protein restoration in liver by ELISA; format: in vivo, mouse; conditions: 1 week
Method: Experiments were performed to determine if GalNAc conjugation to PMO or PMO-EEV could improve liver efficacy of PMO or PMO-EEV in EGFP-654 mice (Sazani et al., Nat Biotechnol. 2002 December; 20(12):1228-33. doi: 10.1038/nbt759.) in a single dosing schedule. Mice (EGFP-654, n=3/group; one female and two male) were injected intravenously (IV) with saline as control and 20 mpk of PMO1 and PMO1-EEV1; 0.2, 2, and 20 mpk (all normalized based on PMO dose) GalNAc-PMO2 and GalNAc-PMO2-EEV1 via both intravenous (TV) and subcutaneous (SC) route of administration. Both the PMO1 and the PMO2 have the same sequence and can be conjugated to EEV at the 3′ end, however, they have different functional handles at 5′ end. […] Thus, PMO1 is used as a control to when exploring the GalNAc liver targeting effects of the PMO2 GalNAc conjugates. An overview of the study design is illustrated in FIG. 16.
eGFP-654 transgenic mouse. The eGFP-654 transgenic mouse line was generated previously for evaluating splice switching oligonucleotides (Sazani et al. 2002 Nat Biotech; JAX stock #027617). The eGFP-654 transgene was cloned under a hybrid promoter with a cytomegalovirus early enhancer element, chicken beta-actin, and rabbit beta-globin, yielding widespread expression throughout the body. […]
eGFP relative protein analysis by […] (ELISA). […] Concentration was measured using a bicinchoninic acid (BCA) assay according to the manufacturer's protocol (Pierce BCA Protein Assay Kit 23227), diluting with the lysis buffer as needed. […] Sample eGFP levels were analyzed using enzyme-linked immunosorbent assay (ELISA) analysis with Abcam GFP ELISA kit (ab171581) according to the manufacturer's protocol. Sample eGFP levels were interpolated using the standard curve with the ELISA kit and reported as mass of eGFP detected (as measured by ELISA) per mass of protein content in the tissue lysate (as measured by BCA assay). the pg/mL of protein detected in each sample divided by the total protein concentration of lysates in ug/ml. […]

N[C@@H](Cc1c[nH]c2ccccc12)C(=O)O [Trp, Tryptophan]
Hydrophobicity, Eisenberg and Weiss [1]: 0.37
Hydrophobicity, Engleman et al. [1]: 1.9
Hydrophobicity, Janin [1]: 0.3
Hydrophobicity, Kyrie and Doolittle [1]: −0.9
SASA, Empirical [2]: 264.0 Å^2
SASA, Theoretical [2]: 285.0 Å^2
SASA, Miller et al. (1987) [2]: 259.0 Å^2
SASA, Rose et al. (1985) [2]: 266.3 Å^2

NCC(=O)O [Gly, Glycine]
SASA, Empirical [2]: 97.0 Å^2
SASA, Theoretical [2]: 104.0 Å^2
SASA, Miller et al. (1987) [2]: 85.0 Å^2
SASA, Rose et al. (1985) [2]: 88.1 Å^2

N=C(N)NCCC[C@H](N)C(=O)O [Arginine, arginine]
SASA, Empirical [2]: 265.0 Å^2
SASA, Theoretical [2]: 274.0 Å^2
SASA, Miller et al. (1987) [2]: 241.0 Å^2
SASA, Rose et al. (1985) [2]: 256.0 Å^2

N[C@@H](CS)C(=O)O [Cys, Cysteine]
Hydrophobicity, Eisenberg and Weiss [1]: 0.04
Hydrophobicity, Engleman et al. [1]: 2.0
Hydrophobicity, Janin [1]: 0.9
Hydrophobicity, Kyrie and Doolittle [1]: 2.5
SASA, Empirical [2]: 148.0 Å^2
SASA, Theoretical [2]: 167.0 Å^2
SASA, Miller et al. (1987) [2]: 140.0 Å^2
SASA, Rose et al. (1985) [2]: 146.1 Å^2

C[C@@H](O)[C@H](N)C(=O)O [Thr, Threonine]
Hydrophobicity, Eisenberg and Weiss [1]: −0.18
Hydrophobicity, Engleman et al. [1]: 1.2
Hydrophobicity, Janin [1]: −0.2
Hydrophobicity, Kyrie and Doolittle [1]: −0.7
SASA, Empirical [2]: 163.0 Å^2
SASA, Theoretical [2]: 172.0 Å^2
SASA, Miller et al. (1987) [2]: 146.0 Å^2
SASA, Rose et al. (1985) [2]: 152.5 Å^2

N[C@@H](CC(=O)O)C(=O)O [Asp, Aspartic acid]
Hydrophobicity, Eisenberg and Weiss [1]: −0.72
Hydrophobicity, Engleman et al. [1]: −9.2
Hydrophobicity, Janin [1]: −0.6
Hydrophobicity, Kyrie and Doolittle [1]: −3.5
SASA, Empirical [2]: 187.0 Å^2
SASA, Theoretical [2]: 193.0 Å^2
SASA, Miller et al. (1987) [2]: 151.0 Å^2
SASA, Rose et al. (1985) [2]: 158.7 Å^2

O=C(O)[C@@H]1CCCN1 [Pro, Proline]
SASA, Empirical [2]: 154.0 Å^2
SASA, Miller et al. (1987) [2]: 143.0 Å^2
SASA, Rose et al. (1985) [2]: 146.8 Å^2

PMO3-GalNAc-EEV1: "EEV1 was reacted with compound PMO1-Lys(BCN) with the following sequence (5′-GCT ATT ACC TTA ACC CAG-3′)"; "GalNAc-N3 was then reacted with PMO1-Lys(BCN)-EEV1" (DNA GCTATTACCTTAACCCAG; all phosphorodiamidate morpholino (PMO); PMO with Lys(BCN) linker bearing GalNAc and EEV1 cell-penetrating peptide)
fold enhancement of efficacy compared to PMO1 (eGFP-654 transgene; liver eGFP, 20 mpk IV): 14 fold
fold enhancement of efficacy compared to PMO1-EEV1 (eGFP-654 transgene; liver eGFP, 20 mpk IV): 8.9 fold

C[C@H](N)C(=O)O [Ala, Alanine]
Hydrophobicity, Eisenberg and Weiss [1]: 0.25
Hydrophobicity, Engleman et al. [1]: 1.6
Hydrophobicity, Janin [1]: 0.3
Hydrophobicity, Kyrie and Doolittle [1]: 1.8
SASA, Empirical [2]: 121.0 Å^2
SASA, Theoretical [2]: 129.0 Å^2
SASA, Miller et al. (1987) [2]: 113.0 Å^2
SASA, Rose et al. (1985) [2]: 118.1 Å^2

NC(=O)C[C@H](N)C(=O)O [Asn, Asparagine]
Hydrophobicity, Eisenberg and Weiss [1]: −0.64
Hydrophobicity, Engleman et al. [1]: −4.8
Hydrophobicity, Janin [1]: −0.5
Hydrophobicity, Kyrie and Doolittle [1]: −3.5
SASA, Empirical [2]: 187.0 Å^2
SASA, Theoretical [2]: 195.0 Å^2
SASA, Miller et al. (1987) [2]: 158.0 Å^2
SASA, Rose et al. (1985) [2]: 165.5 Å^2

N=C(N)NCCC[C@H](N)C(=O)O [Arg, Arginine]
Hydrophobicity, Eisenberg and Weiss [1]: −1.80
Hydrophobicity, Engleman et al. [1]: −12.3
Hydrophobicity, Janin [1]: −1.4
Hydrophobicity, Kyrie and Doolittle [1]: −4.5

N[C@@H](CO)C(=O)O [Ser, Serine]
Hydrophobicity, Eisenberg and Weiss [1]: −0.26
Hydrophobicity, Engleman et al. [1]: 0.6
Hydrophobicity, Janin [1]: −0.1
Hydrophobicity, Kyrie and Doolittle [1]: −0.8
SASA, Empirical [2]: 143.0 Å^2
SASA, Theoretical [2]: 155.0 Å^2
SASA, Miller et al. (1987) [2]: 122.0 Å^2
SASA, Rose et al. (1985) [2]: 129.8 Å^2

CSCC[C@H](N)C(=O)O [Met, Methionine]
Hydrophobicity, Eisenberg and Weiss [1]: 0.26
Hydrophobicity, Engleman et al. [1]: 3.4
Hydrophobicity, Janin [1]: 0.4
Hydrophobicity, Kyrie and Doolittle [1]: 1.9
SASA, Empirical [2]: 203.0 Å^2
SASA, Theoretical [2]: 224.0 Å^2
SASA, Miller et al. (1987) [2]: 204.0 Å^2
SASA, Rose et al. (1985) [2]: 203.4 Å^2

NCCCC[C@H](N)C(=O)O [Lys, Lysine]
Hydrophobicity, Eisenberg and Weiss [1]: −1.10
Hydrophobicity, Engleman et al. [1]: −8.8
Hydrophobicity, Janin [1]: −1.8
Hydrophobicity, Kyrie and Doolittle [1]: −3.9
SASA, Empirical [2]: 230.0 Å^2
SASA, Theoretical [2]: 236.0 Å^2
SASA, Miller et al. (1987) [2]: 211.0 Å^2
SASA, Rose et al. (1985) [2]: 225.8 Å^2

N[C@@H](Cc1ccc(O)cc1)C(=O)O [Tyr, Tyrosine]
Hydrophobicity, Eisenberg and Weiss [1]: 0.02
Hydrophobicity, Engleman et al. [1]: −0.7
Hydrophobicity, Janin [1]: −0.4
Hydrophobicity, Kyrie and Doolittle [1]: −1.3
SASA, Empirical [2]: 255.0 Å^2
SASA, Theoretical [2]: 263.0 Å^2
SASA, Miller et al. (1987) [2]: 229.0 Å^2
SASA, Rose et al. (1985) [2]: 236.8 Å^2

CC[C@H](C)[C@H](N)C(=O)O [Ile, Isoleucine]
Hydrophobicity, Eisenberg and Weiss [1]: 0.73
Hydrophobicity, Engleman et al. [1]: 3.1
Hydrophobicity, Janin [1]: 0.7
Hydrophobicity, Kyrie and Doolittle [1]: 4.5
SASA, Empirical [2]: 195.0 Å^2
SASA, Theoretical [2]: 197.0 Å^2
SASA, Miller et al. (1987) [2]: 182.0 Å^2
SASA, Rose et al. (1985) [2]: 181.0 Å^2

N[C@@H](Cc1c[nH]cn1)C(=O)O [His, Histidine]
Hydrophobicity, Eisenberg and Weiss [1]: −0.40
Hydrophobicity, Engleman et al. [1]: −3.0
Hydrophobicity, Janin [1]: −0.1
Hydrophobicity, Kyrie and Doolittle [1]: −3.2
SASA, Empirical [2]: 216.0 Å^2
SASA, Theoretical [2]: 224.0 Å^2
SASA, Miller et al. (1987) [2]: 194.0 Å^2
SASA, Rose et al. (1985) [2]: 202.5 Å^2

N[C@@H](Cc1ccccc1)C(=O)O [Phe, Phenylalanine]
Hydrophobicity, Eisenberg and Weiss [1]: 0.61
Hydrophobicity, Engleman et al. [1]: 3.7
Hydrophobicity, Janin [1]: 0.5
Hydrophobicity, Kyrie and Doolittle [1]: 2.8
SASA, Empirical [2]: 228.0 Å^2
SASA, Theoretical [2]: 240.0 Å^2
SASA, Miller et al. (1987) [2]: 218.0 Å^2
SASA, Rose et al. (1985) [2]: 222.8 Å^2

Cyclo(FGFRRRRQ)-PEG12-OH (cyclo(FGFRRRRQ); also: PEG12-OH attached, position not clear) [EEV6]
eGFP protein restoration, different EEVs / GalNAc ligands conjugated to GalNAc-PMO2 constructs (eGFP-654 transgene; liver, 20 mpk PMO equivalent IV): highest eGFP protein restoration

N[C@@H](CCC(=O)O)C(=O)O [Glu, Glutamic acid]
Hydrophobicity, Eisenberg and Weiss [1]: −0.62
Hydrophobicity, Engleman et al. [1]: −8.2
Hydrophobicity, Janin [1]: −0.7
Hydrophobicity, Kyrie and Doolittle [1]: −3.5
SASA, Empirical [2]: 214.0 Å^2
SASA, Miller et al. (1987) [2]: 183.0 Å^2
SASA, Rose et al. (1985) [2]: 186.2 Å^2

CC(C)[C@H](N)C(=O)O [Val, Valine]
Hydrophobicity, Eisenberg and Weiss [1]: 0.54
Hydrophobicity, Engleman et al. [1]: 2.6
Hydrophobicity, Janin [1]: 0.6
Hydrophobicity, Kyrie and Doolittle [1]: 4.2
SASA, Empirical [2]: 165.0 Å^2
SASA, Theoretical [2]: 174.0 Å^2
SASA, Miller et al. (1987) [2]: 160.0 Å^2
SASA, Rose et al. (1985) [2]: 164.5 Å^2
